The results in this text go back to US20260334439A1, “BCAT2 INHIBITORS” (Agios Pharmaceuticals, Inc., priority 2023, published 2026).

Assay [1] concerns the target T1, BCAT2 (Homo sapiens, UniProt O15382).
T1 sequence (O15382 28-392): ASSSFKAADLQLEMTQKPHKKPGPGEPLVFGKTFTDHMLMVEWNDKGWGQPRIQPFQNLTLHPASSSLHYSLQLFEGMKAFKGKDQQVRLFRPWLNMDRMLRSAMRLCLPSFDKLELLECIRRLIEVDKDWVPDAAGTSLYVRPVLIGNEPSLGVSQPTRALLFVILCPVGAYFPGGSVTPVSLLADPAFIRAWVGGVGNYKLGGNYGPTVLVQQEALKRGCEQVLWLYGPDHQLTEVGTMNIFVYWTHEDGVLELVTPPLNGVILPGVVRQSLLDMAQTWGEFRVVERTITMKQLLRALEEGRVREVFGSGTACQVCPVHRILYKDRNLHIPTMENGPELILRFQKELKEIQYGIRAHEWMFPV
Description: BCAT2 in vitro enzyme inhibition assay (hBCAT2, glutamate dehydrogenase/diaphorase/resazurin coupled fluorescence read). Format: biochemical. Particulars: hBCAT2, 1 h preincubation at 25° C., one hour reaction; average where tested multiple times. The procedure, abridged: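 hBCAT2 (0.33 μg/mL in mix) preincubated 1 h at 25 °C with compound (top 100 μM, 3-fold, 10 points) in Tris pH 8.0/NaCl/BSA; substrate mix added (L-leucine, α-ketoglutarate, GDH, NAD, diaphorase, resazurin), quenched with SDS after 1 h, fluorescence Ex 540/Em 590; duplicates, repeat tests averaged.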
(The colour change of resazurin is a common sign of viable cells or microbes.)

For assay [2], the target named is T1, BCAT2. Description: BCAT2 cell inhibition using engineered A549 cells (MUT KO, BCAT1 KO; 13C6-KMV formation by LC-MS/MS). The class given is cell-based. Further details: expressed endogenous BCAT2; endogenous in cells; host or cells: A549 cells, MUT knockout and BCAT1 knockout. The procedure, abridged:
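Medium 13C6-KMV formation is read by LC-MS/MS after PFBHA derivatization with d8-KMV internal standard. Cells are CRISPR MUT/BCAT1 double-knockout A549 expressing endogenous BCAT2, given compound 15 min before labelled isoleucine (800 uM, added 1:1) for 24 h. CTG viability run in parallel; replicates averaged.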

[3] abbreviates: read-out: BCAT2 Cell Inhibition (IC50), engineered A549 cells, 24 hours, 13C6-KMV in media, average where tested multiple times.

By IC50 is commonly meant the midpoint of a concentration-inhibition curve.

`O=C1c2cc(F)ccc2CN1[C@H]1CCC[C@@H](n2c(-c3ccccc3F)nc3cnc(-n4nccn4)cc32)[C@@H]1O` [Example 185, 6-fluoro-2-((1S,2S,3R)-3-(2-(2-fluorophenyl)-6-(2H-1,2,3-triazol-2-yl)-1H-imidazo[4,5-c]pyridin-1-yl)-2-hydroxycyclohexyl)isoindolin-1-one]: the IC50 against BCAT2 [1] and against BCAT2 [2] was less than 100 nM each time.
With `CCOc1ccc(Cl)cc1C(=O)N[C@H]1CCC[C@@H](n2c(-c3ncccc3F)nc3cnc(-c4nc[nH]n4)cc32)C1` [Example 27, 5-chloro-2-ethoxy-N-((1S,3R)-3-(2-(3-fluoropyridin-2-yl)-6-(1H-1,2,4-triazol-3-yl)-1H-imidazo[4,5-c]pyridin-1-yl)cyclohexyl)benzamide], the IC50 on BCAT2 [1] and against BCAT2 [2] was less than 100 nM throughout.
Take `COCCOc1ccc(Cl)cc1C(=O)N[C@H]1CCC[C@@H](n2c(-c3ccccc3F)nc3cnc(-c4nc[nH]n4)cc32)C1` [Example 54, 5-chloro-N-((1S,3R)-3-(2-(2-fluorophenyl)-6-(1H-1,2,4-triazol-3-yl)-1H-imidazo[4,5-c]pyridin-1-yl)cyclohexyl)-2-(2-methoxyethoxy)benzamide]: the IC50 against BCAT2 [1] and against BCAT2 [2] was less than 100 nM in each case.
On to `O=C1c2cc(Cl)ccc2OCN1[C@H]1CCC[C@@H](n2c(-c3ccccc3F)nc3cnc(-c4ncco4)cc32)[C@@H]1O` [Example 215, 6-chloro-3-((1S,2S,3R)-3-(2-(2-fluorophenyl)-6-(oxazol-2-yl)-1H-imidazo[4,5-c]pyridin-1-yl)-2-hydroxycyclohexyl)-2,3-dihydro-4H-benzo[e][1,3]oxazin-4-one], for which the IC50 at BCAT2 [1] and against BCAT2 [2] was less than 100 nM throughout.
With `N#Cc1ccccc1-c1nc2cnc(-c3nc[nH]n3)cc2n1[C@@H]1CCC[C@H](NC(=O)c2cc(Cl)ccn2)C1` [Example 45, 4-chloro-N-((1S,3R)-3-(2-(2-cyanophenyl)-6-(1H-1,2,4-triazol-3-yl)-1H-imidazo[4,5-c]pyridin-1-yl)cyclohexyl)picolinamide], the IC50 against BCAT2 [1] and at BCAT2 [2] was less than 100 nM each time.
On to `O=C(N[C@H]1CCC[C@@H](n2c(-c3ccccc3F)nc3cnc(-c4nc[nH]n4)cc32)C1)c1cc(Cl)ccc1F` [Example 56, 5-chloro-2-fluoro-N-((1S,3R)-3-(2-(2-fluorophenyl)-6-(1H-1,2,4-triazol-3-yl)-1H-imidazo[4,5-c]pyridin-1-yl)cyclohexyl)benzamide], for which the IC50 against BCAT2 [1] and against BCAT2 [2] was less than 100 nM each time.
As to `O=C1c2cc(F)ccc2NCN1[C@H]1CCC[C@@H](n2c(-c3ccccc3F)nc3cnc(-c4nc[nH]n4)cc32)C1` [Example 208, 6-fluoro-3-((1S,3R)-3-(2-(2-fluorophenyl)-6-(1H-1,2,4-triazol-3-yl)-1H-imidazo[4,5-c]pyridin-1-yl)cyclohexyl)-2,3-dihydroquinazolin-4(1H)-one], the IC50 at BCAT2 [1] and against BCAT2 [2] was less than 100 nM in each case.
Turning to `CO[C@@H]1C[C@H](N2Cc3ccc(F)cc3C2=O)C[C@H](n2c(-c3ccccc3F)nc3cnc(-c4nc[nH]n4)cc32)C1` [Example 195, 6-fluoro-2-((1R,3S,5S)-3-(2-(2-fluorophenyl)-6-(1H-1,2,4-triazol-3-yl)-1H-imidazo[4,5-c]pyridin-1-yl)-5-methoxycyclohexyl)isoindolin-1-one], the half-maximal inhibitory concentration (IC50) at BCAT2 [1] and at BCAT2 [2] was less than 100 nM in each case.
As to `O=C(N[C@H]1CCC[C@@H](n2c(-c3ccccc3F)nc3cnc(-c4nc[nH]n4)cc32)C1)c1c(F)cccc1F` [Example 74, 2,6-difluoro-N-((1S,3R)-3-(2-(2-fluorophenyl)-6-(1H-1,2,4-triazol-3-yl)-1H-imidazo[4,5-c]pyridin-1-yl)cyclohexyl)benzamide], the results for the IC50 against BCAT2 [1] and against BCAT2 [2] were less than 100 nM and 100 to 500 nM, respectively.
For `CN1C[C@H](NC(=O)c2cc(F)ccn2)C[C@H](n2c(-c3ccccc3F)nc3cnc(-c4nc[nH]n4)cc32)C1` [Example 134, 4-fluoro-N-((3R,5S)-5-(2-(2-fluorophenyl)-6-(1H-1,2,4-triazol-3-yl)-1H-imidazo[4,5-c]pyridin-1-yl)-1-methylpiperidin-3-yl)picolinamide] the same measures were less than 100 nM and 100 to 500 nM.
For `O=C(N[C@H]1CCC[C@@H](n2c(-c3ccccc3F)nc3cnc(-c4nc[nH]n4)cc32)C1)c1cc(Cl)ccc1OC1CC1` [Example 29, 5-chloro-2-cyclopropoxy-N-((1S,3R)-3-(2-(2-fluorophenyl)-6-(1H-1,2,4-triazol-3-yl)-1H-imidazo[4,5-c]pyridin-1-yl)cyclohexyl)benzamide] the same measures were less than 100 nM and less than 100 nM.
On to `O=C1c2cccc(F)c2CN1[C@H]1CCC[C@@H](n2c(-c3ccccc3F)nc3cnc(-c4nc[nH]n4)cc32)C1` [Example 177, 4-fluoro-2-((1S,3R)-3-(2-(2-fluorophenyl)-6-(1H-1,2,4-triazol-3-yl)-1H-imidazo[4,5-c]pyridin-1-yl)cyclohexyl)isoindolin-1-one], for which the IC50 on BCAT2 [1] is less than 100 nM; at BCAT2 [2] it was 100 to 500 nM.
In the same order, the values of `O=C(N[C@H]1CCC[C@@H](n2c(-c3ccccc3F)nc3ccc(-c4nc[nH]n4)c(F)c32)C1)c1cc(Cl)ccn1` [Example 230, 4-chloro-N-((1S,3R)-3-(7-fluoro-2-(2-fluorophenyl)-6-(1H-1,2,4-triazol-3-yl)-1H-benzo[d]imidazol-1-yl)cyclohexyl)picolinamide] are less than 100 nM and less than 100 nM.
Consider `N#Cc1ccccc1-c1nc2ccc(-c3ncccn3)cc2n1[C@@H]1CCC[C@H](N2Cc3ccc(F)cc3C2=O)C1` [Example 239, 2-(1-((1R,3S)-3-(6-fluoro-1-oxoisoindolin-2-yl)cyclohexyl)-6-(pyrimidin-2-yl)-1H-benzo[d]imidazol-2-yl)benzonitrile], for which the IC50 against BCAT2 [1] and against BCAT2 [2] was less than 100 nM throughout.
For `O=C(N[C@H]1CCC[C@@H](n2c(-c3ccccc3F)nc3cnc(-c4nc[nH]n4)cc32)C1)c1ncccc1F` [Example 11, 3-fluoro-N-((1S,3R)-3-(2-(2-fluorophenyl)-6-(1H-1,2,4-triazol-3-yl)-1H-imidazo[4,5-c]pyridin-1-yl)cyclohexyl)picolinamide], the IC50 on BCAT2 [1] was less than 100 nM; against BCAT2 [2], 500 to 1000 nM.
In the case of `O=C(N[C@H]1CCC[C@@H](n2c(-c3ccccc3F)nc3cnc(-c4nc[nH]n4)cc32)C1)c1cc(Cl)ccc1OCCCO` [Example 82, 5-chloro-N-((1S,3R)-3-(2-(2-fluorophenyl)-6-(1H-1,2,4-triazol-3-yl)-1H-imidazo[4,5-c]pyridin-1-yl)cyclohexyl)-2-(3-hydroxypropoxy)benzamide], the IC50 against BCAT2 [1] and against BCAT2 [2] was less than 100 nM throughout.
As to `O=C1c2cc(F)ccc2CN1[C@H]1CCC[C@@H](n2c(-c3c(O)cccc3F)nc3cnc(-c4nc[nH]n4)cc32)C1` [Example 179, 6-fluoro-2-((1S,3R)-3-(2-(2-fluoro-6-hydroxyphenyl)-6-(1H-1,2,4-triazol-3-yl)-1H-imidazo[4,5-c]pyridin-1-yl)cyclohexyl)isoindolin-1-one], the half-inhibitory concentration (IC50) on BCAT2 [1] and on BCAT2 [2] was less than 100 nM in each case.
With `COc1ccc(Cl)cc1C(=O)N[C@H]1CCC[C@@H](n2c(-c3ccccc3F)nc3ccc(-c4nc[nH]n4)cc32)[C@@H]1O` [Example 217, 5-chloro-N-((1S,2R,3R)-3-(2-(2-fluorophenyl)-6-(1H-1,2,4-triazol-3-yl)-1H-benzo[d]imidazol-1-yl)-2-hydroxycyclo-hexyl)-2-methoxybenzamide], the results for the IC50 against BCAT2 [1] and on BCAT2 [2] (setting [3]) were less than 100 nM and more than 1000 nM, respectively.
As for `CC(C)COc1ccc(Cl)cc1C(=O)N[C@H]1CCC[C@@H](n2c(-c3ccccc3C#N)nc3cnc(-c4nc[nH]n4)cc32)C1` [Example 49, 5-chloro-N-((1S,3R)-3-(2-(2-cyanophenyl)-6-(1H-1,2,4-triazol-3-yl)-1H-imidazo[4,5-c]pyridin-1-yl)cyclohexyl)-2-isobutoxybenzamide], the IC50 against BCAT2 [1] was less than 100 nM; on BCAT2 [2], 100 to 500 nM.
For the compound `CN(C)CCOc1ccc(Cl)cc1C(=O)N[C@H]1CCC[C@@H](n2c(-c3ccccc3F)nc3cnc(-c4nc[nH]n4)cc32)C1` [Example 55, 5-chloro-2-(2-(dimethylamino)ethoxy)-N-((1S,3R)-3-(2-(2-fluorophenyl)-6-(1H-1,2,4-triazol-3-yl)-1H-imidazo[4,5-c]pyridin-1-yl)cyclohexyl)benzamide], the IC50 at BCAT2 [1] is less than 100 nM; on BCAT2 [2] (setting [3]) it was more than 1000 nM.
With `COc1ccccc1C(=O)N[C@H]1CCC[C@@H](n2c(-c3ccccc3F)nc3cnc(-c4nc[nH]n4)cc32)C1` [Example 5, N-((1S,3R)-3-(2-(2-fluorophenyl)-6-(1H-1,2,4-triazol-3-yl)-1H-imidazo[4,5-c]pyridin-1-yl)cyclohexyl)-2-methoxybenzamide], the IC50 against BCAT2 [1] and at BCAT2 [2] was less than 100 nM each time.
